This is an account of results in patent EP0416740A2, “Novel compounds with renin-inhibiting activity” (Beecham Group p.l.c., priority 1989, dated 1991).

SMILES strings stand for the structures. Where a name gives a salt, the structure may show the parent alone. Read-outs that look alike come from different tables or passages of the source.

This assay addresses T1, human renin (Homo sapiens, UniProt P00797).
T1 construct: from tissue; host or cells: human plasma from blood of healthy volunteers
T1 sequence (P00797 67-406): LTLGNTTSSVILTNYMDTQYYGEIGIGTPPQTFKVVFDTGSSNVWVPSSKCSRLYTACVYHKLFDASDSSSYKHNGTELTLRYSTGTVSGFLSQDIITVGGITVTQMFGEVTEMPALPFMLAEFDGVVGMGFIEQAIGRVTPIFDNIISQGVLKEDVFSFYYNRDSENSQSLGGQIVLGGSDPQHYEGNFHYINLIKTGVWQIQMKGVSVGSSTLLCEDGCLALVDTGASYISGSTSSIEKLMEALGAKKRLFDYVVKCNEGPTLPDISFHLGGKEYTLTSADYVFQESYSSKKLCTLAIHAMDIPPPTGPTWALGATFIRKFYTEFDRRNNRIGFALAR
Description: biochemical. As to the method: In vitro human renin inhibition
Renin inhibitory activity was estimated as the percentage change in renin activity in human plasma in the presence and absence of compound. The source of plasma was blood taken from healthy volunteers. Renin activity was defined by the difference in angiotensin I levels between two halves of a sample, one incubated at 37^o and the other at 4^o for 2 h. Angiotensin I levels were measured using a ¹²⁵I- angiotensin I radioimmunoassay kit (NEN/Dupont, Stevenage). Results were calculated as the mean of at least two, duplicate determinations and IC₅₀ values were calculated by linear regression analysis of at least three concentrations of compound.

[1] abbreviates: renin activity in human plasma, angiotensin I difference between halves incubated at 37° and 4° for 2 h, linear regression of at least three concentrations, read-out: IC₅₀.

For the compound `CC(C)CNC(=O)C[C@H](O)[C@H](CC1CCCCC1)NC(=O)[C@H](CC(C)C)NC(=O)[C@H](Cc1ccccc1)NC(=O)CC1COc2ccc[n+]([O-])c21` (stereo partly drawn) [Example E2, 2,3-Dihydro-4-oxofuro[3,2-]pyridine-3-acetyl-Phe-Leu-ACHPA isobutylamide], the IC50 was 21 nM.

Turning to `CC(C)C[C@H](NC(=O)[C@H](Cc1ccccc1)NC(=O)CCN1C(=O)COc2cccnc21)C(=O)N[C@@H](CC1CCCCC1)[C@@H](O)CC(=O)NCCCn1ccnc1` [Example E3, 2,3-Dihydro-3-oxo-4H-pyrido[3,2-b]-1,4-oxazine-4-propanoyl-Phe-Leu-ACHPA 3-(1-imidazolyl)propylamide .0.5(CHCl₃)], under setting [1], the IC50 came out at 26 nM.

With `CC(C)C[C@H](NC(=O)[C@H](Cc1ccccc1)NC(=O)CCN1C(=O)CSc2ccncc21)C(=O)N[C@@H](CC1CCCCC1)[C@@H](O)CC(=O)NCCCn1ccnc1` [Example E4, 2,3-Dihydro-3-oxo-4H-pyrido[4,3-b]-1,4-thiazine-4-propanoyl-Phe-Leu-ACHPA 3-(1-imidazolyl)propylamide], the IC50 under setting [1] came out at 4 nM.

`CC(C)C[C@H](NC(=O)[C@H](Cc1ccccc1)NC(=O)CCN1C(=O)CSc2ncccc21)C(=O)N[C@@H](CC1CCCCC1)[C@@H](O)CC(=O)NCCCn1ccnc1` [Example E10, 2,3-Dihydro-3-oxo-4H-pyrido[2,3-b]-1,4-thiazine-4-propanoyl-Phe-Leu-ACHPA 3-(1-imidazolyl)propylamide .HCl]: under setting [1], the IC50 amounted to 6 nM.

For `CC(C)C[C@H](NC(=O)[C@H](Cc1ccccc1)NC(=O)CCN1C(=O)CS(=O)(=O)c2ncccc21)C(=O)N[C@@H](CC1CCCCC1)[C@@H](O)CC(=O)NCCCn1ccnc1` [Example E11, 2,3-Dihydro-1,1,3-trioxo-4H-pyrido[2,3-b]-1,4-thiazine-4-propanoyl-Phe-Leu-ACHPA 3-(1-imidazolyl)propylamide .HCl.1.5H₂O], under setting [1], the IC50 was determined as 12 nM.

As for `CC(C)C[C@H](NC(=O)[C@H](Cc1ccccc1)NC(=O)CCCN1Cc2ccncc2C1=O)C(=O)N[C@@H](CC1CCCCC1)[C@@H](O)CC(=O)NCCCn1ccnc1` [Example E14, 6,7-Dihydro-5H-7-oxo-pyrrolo[3,4-c]pyridine-6-butanoyl-Phe-Leu-ACHPA 3-(1-imidazolyl)propylamide.2HCl], the IC50 under setting [1] was found to be 14 nM.
